For data set [1], the target named is T1, Gonadotropin-releasing hormone receptor (Homo sapiens, UniProt P30968).
T1 sequence (P30968 whole entry): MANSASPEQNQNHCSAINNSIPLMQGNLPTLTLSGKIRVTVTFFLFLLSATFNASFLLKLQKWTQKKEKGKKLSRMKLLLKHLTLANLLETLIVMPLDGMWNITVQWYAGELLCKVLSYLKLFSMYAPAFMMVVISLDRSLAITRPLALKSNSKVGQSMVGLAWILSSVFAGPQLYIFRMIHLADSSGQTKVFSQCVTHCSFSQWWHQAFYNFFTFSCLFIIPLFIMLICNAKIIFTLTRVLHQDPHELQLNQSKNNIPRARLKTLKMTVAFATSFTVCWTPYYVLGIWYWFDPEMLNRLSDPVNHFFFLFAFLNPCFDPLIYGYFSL
The data set can be described thus: Ability to inhibit [125I-Tyr5,DLeu6,NMeLeu7,Pro9-NEt]GnRH agonist binding to the cloned human Gonadotropin-releasing hormone receptor was evaluated.

Data set [2] in a line: Oral bioavailability in rat. It counts as ADME, organism-based. Conditions: in vivo.
Data set [3] deals with T2, Gonadotropin-releasing hormone receptor (Rattus norvegicus, UniProt P30969).
T2 sequence (P30969 whole entry): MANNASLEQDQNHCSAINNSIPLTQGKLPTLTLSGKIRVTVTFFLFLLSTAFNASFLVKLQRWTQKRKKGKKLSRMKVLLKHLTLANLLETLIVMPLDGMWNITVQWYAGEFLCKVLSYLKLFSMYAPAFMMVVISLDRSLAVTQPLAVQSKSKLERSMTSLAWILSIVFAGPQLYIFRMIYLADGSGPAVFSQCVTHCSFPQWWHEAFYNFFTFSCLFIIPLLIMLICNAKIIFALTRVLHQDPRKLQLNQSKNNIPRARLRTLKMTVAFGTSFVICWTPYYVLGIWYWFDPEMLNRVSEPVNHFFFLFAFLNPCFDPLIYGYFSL
In words: Ability of compound to inhibit [125I-Tyr5,DLeu6,NMeLeu7,Pro9-NEt]GnRH agonist binding to the rat Gonadotropin-releasing hormone receptor was evaluated.

In data set [4] the target is T1, Gonadotropin-releasing hormone receptor. In words: Ability of compound to inhibit [125I-Tyr5,DLeu6,NMeLeu7,Pro9-NEt]GnRH agonist binding to the cloned human Gonadotropin-releasing hormone receptor was evaluated.

For the molecule `CCCC(=O)Nc1ccc(-c2cn3c(=O)c(C(=O)OCC)cn(Cc4ccccc4F)c3n2)cc1`, in data set [1], affinity was put at a Ki of 30000 nM.
Same read-out and setting: the result for `CCC(CC)OC(=O)c1cn(Cc2ccccc2F)c2nc(-c3ccc(NC(=O)C(C)C)cc3)c(CN(C)Cc3ccccc3)n2c1=O` reads 41 nM; that for `CCCC(=O)Nc1ccc(-c2nc3n(Cc4ccccc4F)cc(C(=O)OC(CC)CC)c(=O)n3c2CN(C)CCc2ccccn2)cc1`, 7.5 nM; that for `CCCC(=O)Nc1ccc(-c2nc3n(Cc4ccccc4F)cc(C(=O)OC(CC)CC)c(=O)n3c2CN(C)CCOC)cc1`, 36 nM.
Regarding `CC[C@H]1OC(=O)[C@H](C)[C@@H](OC(=O)N2C(=O)OC[C@@H]2C)[C@H](C)[C@@H](O[C@@H]2O[C@H](C)C[C@H](N(C)CC3CC3)[C@H]2O)[C@@](C)(OC)C[C@@H](C)C(=O)[C@H](C)[C@H]2N(CCc3ccc(Cl)c(Cl)c3)C(=O)O[C@]12C`, the bioavailability (usually the share of a dose that reaches the circulation, judged against a reference dose that is usually intravenous) in data set [2] is 15.2%. The Ki (commonly a dissociation constant, usually derived from enzyme kinetics or from competition with a known ligand) in data set [3] is 0.631 nM; in data set [4] it was 2 nM.
Molecule `CCCC(=O)Nc1ccc(-c2nc3n(Cc4ccccc4F)cc(C(=O)OC(CC)CC)c(=O)n3c2CN(C)Cc2cccnc2)cc1` had a Ki in data set [1] of 52 nM.
The molecule `CCCC(=O)Nc1ccc(-c2nc3n(Cc4ccccc4F)cc(C(=O)OC(CC)CC)c(=O)n3c2CN(C)CCc2ccccc2)cc1` registered a Ki in data set [1] of 14 nM.
Still for that read-out and setting: the result for `CCCC(=O)Nc1ccc(-c2nc3n(Cc4ccccc4F)cc(C(=O)OC(CC)CC)c(=O)n3c2CN2CCc3ccccc3C2)cc1` reads 290 nM; that for `CCCC(=O)Nc1ccc(-c2nc3n(Cc4ccccc4F)cc(C(=O)OCC)c(=O)n3c2CN(C)Cc2ccccc2)cc1`, 80 nM.
Same read-out and setting: the result for `CCOC(=O)c1cn(Cc2ccccc2F)c2nc(-c3ccc(OC)cc3)c(CN(C)Cc3ccccc3)n2c1=O` reads 950 nM; that for `CCCC(=O)Nc1ccc(-c2cn3c(=O)c(C(=O)OC(CC)CC)cn(Cc4ccccc4F)c3n2)cc1`, 28000 nM.
Still for that read-out and setting: the result for `CCCC(=O)Nc1ccc(-c2nc3n(Cc4ccccc4F)cc(C(=O)OC(CC)CC)c(=O)n3c2CN2CCCC2)cc1` reads 2200 nM.
As to `CCCC(=O)Nc1ccc(-c2nc3n(Cc4ccccc4F)cc(C(=O)OC(CC)CC)c(=O)n3c2CN(C)CC#N)cc1`, in data set [1], the Ki worked out at 300 nM.
For the molecule `CCOC(=O)c1cn(Cc2ccccc2F)c2nc(-c3ccc(OC)cc3)c(CN(C)CCc3ccccn3)n2c1=O`, the affinity in data set [1] corresponds to a Ki of 230 nM.
On the same count and under the same terms, the result for `CCCC(=O)Nc1ccc(-c2nc3n(Cc4ccccc4F)cc(C(=O)OCC)c(=O)n3c2CN(C)CCc2ccccn2)cc1` reads 12 nM.
Consider `Cc1cc(-c2c(O)nc3cc(Cl)c(C(=O)Nc4ncccn4)cc3c2OCC[C@@H]2CCN2)cc(C)c1C`, for which the IC50 – broadly, the concentration that gives 50% inhibition – in data set [3] was determined as 4 nM; in data set [4], 0.44 nM.
`CCCC(=O)Nc1ccc(-c2nc3n(Cc4ccccc4F)cc(C(=O)OC(CC)CC)c(=O)n3c2CN(C)Cc2ccco2)cc1` showed a Ki in data set [1] of 29 nM.
